Publication PMC12514245, “Impaired migration and lung invasion of human melanoma by a novel small molecule targeting the transmembrane domain of death receptor p75^NTR” (EMBO Molecular Medicine, 2025)
Where “and” joins values, the source holds several entries; their conditions need not be identical. Equal entries are not always repeated.

Experiments:
[1] = molecular target: T1, p75^NTR TMD (Homo sapiens, UniProt P08138); assay: AraTM assay, wild-type p75NTR TMD (GFP/OD630); format: cell-based; conditions: for GFP/OD630, p75, mean / GFP/OD630, p75NTR WT, Mean: N=3; for GFP/OD630, p75NTR WT, n1-n3: WT without drug = 100%; for GFP/OD630, Mean / GFP/OD630, individual replicates: Figure 5B
T1 sequence (P08138 250-275 limits assumed): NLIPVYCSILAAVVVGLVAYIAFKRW

[2] = molecular target: T2, p75^NTR TMD I252A (Homo sapiens, UniProt P08138, I252A); assay: AraTM assay, I252A mutant p75NTR TMD; format: cell-based; conditions: for GFP/OD630, p75NTR I252A, Mean: N=3
T2 construct: Comparison of wild-type (WT) p75^NTR TMD and I252A, P253G and V254A mutants in the AraTM assay; expressed in transfected cells; host or cells: E. coli AS19 (LPS-negative)
T2 sequence (P08138 250-275 I252A): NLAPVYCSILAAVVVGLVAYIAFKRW

[3] = test system: A875 NT cells; assay: Boyden chamber chemotaxis/invasion assay, A875 NT; format: cell-based, human; conditions: for Fold change - invading cells, Mean / Fold change - invading cells, individual replicates: 1μM; for Fold change (invading cells), Mean: N=3
Experimental: For Boyden chamber assay, Corning® BioCoat™ Matrigel® Invasion Chambers 8.0 µm PET Membrane were used (cat. no. 354480). A875 NT or WM115 cells were serum-starved for 16 h and then seeded at 60,000 cells per well in serum-free media under different conditions, including DMSO (vehicle) or small molecules Div17E5 or Np75-4A22 at different concentrations to the top chamber of the Matrigel-coated trans-well chamber. The pan-caspase inhibitor Q_VD_poH (at 5 µM) was also introduced in the top chamber in some experiments. Two different chemoattractants, NGF (at 50 ng/ml or 100 ng/ml as indicated) or 10% FBS were added to the bottom chamber. Assays were carried out for 8 h after which filters were fixed in 4% PFA and stained with DAPI. Cells that had remained on the top of the filter were gently scrapped away with a cotton tip. The filter lower side was imaged on an inverted fluorescence microscope and counted using ImageJ software (NIH).

[4] = 5μM Q_VD_pOH + 10uM Div17E5, With NGF
[5] = 5μM Q_VD_pOH + 10uM Div17E5, without NGF

SMILES: Oc1ccc(-c2cncc(Nc3ccc(Br)c(Cl)c3)n2)cc1 [Div17E5]
- GFP/OD630, p75, single replicates ([1]; Div17E5 1 μM): 95 and 91 and 115
- GFP/OD630, p75, mean ([1]; Div17E5 1 μM): 100
- GFP/OD630, p75, single replicates ([1]; Div17E5 2.5 μM): 82 and 86 and 101
- GFP/OD630, p75, mean ([1]; Div17E5 2.5 μM): 90
- GFP/OD630, p75, single replicates ([1]; Div17E5 5 μM): 66 and 81 and 88
- GFP/OD630, p75, mean ([1]; Div17E5 5 μM): 78
- GFP/OD630, p75NTR WT, Mean ([1]; Div17E5 7.5 uM): 69%
- GFP/OD630, p75NTR WT, n1-n3 ([1]; Div17E5 7.5 uM): 70% and 62% and 76%
- GFP/OD630, p75, single replicates ([1]; Div17E5 10 μM): 49 and 55 and 68
- GFP/OD630, p75, mean ([1]; Div17E5 10 μM): 57
- GFP/OD630, p75NTR WT, Mean ([1]; Div17E5 15 uM): 61%
- GFP/OD630, p75NTR WT, n1-n3 ([1]; Div17E5 15 uM): 62% and 58% and 63%
- GFP/OD630, p75, single replicates ([1]; Div17E5 20 μM): 39 and 55 and 49
- GFP/OD630, p75NTR WT, Mean ([1]; Div17E5 20 uM): 45%
- GFP/OD630, p75, mean ([1]; Div17E5 20 μM): 48
- GFP/OD630, p75NTR WT, n1-n3 ([1]; Div17E5 20 uM): 50% and 41% and 44%
- GFP/OD630, p75, single replicates ([1]; Div17E5 50 μM): 33 and 42 and 39
- GFP/OD630, p75NTR WT, Mean ([1]; Div17E5 50 uM): 45%
- GFP/OD630, p75, mean ([1]; Div17E5 50 μM): 38
- GFP/OD630, p75NTR WT, n1-n3 ([1]; Div17E5 50 uM): 43% and 46% and 47%
- GFP/OD630, Mean ([1]; compound 2 μM): 0.93
- GFP/OD630, individual replicates ([1]; compound 2 μM): 0.98 and 0.93 and 0.88
- GFP/OD630, Mean ([1]; compound 4 μM): 0.86
- GFP/OD630, individual replicates ([1]; compound 4 μM): 0.83 and 0.92 and 0.82
- GFP/OD630, Mean ([1]; compound 6 μM): 0.82
- GFP/OD630, individual replicates ([1]; compound 6 μM): 0.86 and 0.78 and 0.83
- GFP/OD630, Mean ([1]; compound 8 μM): 0.44
- GFP/OD630, individual replicates ([1]; compound 8 μM): 0.43 and 0.51 and 0.37
- GFP/OD630, Mean ([1]; compound 10 μM): 0.43
- GFP/OD630, individual replicates ([1]; compound 10 μM): 0.41 and 0.48 and 0.40
- IC50 ([1]; dose-response): 12 µM
- selectivity for the p75NTR TMD as compared to TMDs of two unrelated proteins ([1]; vs α2β3 integrin and M2 TMDs): good selectivity
- effect of Ile252 mutation on compound activity in AraTM assay [2]: abolished
- GFP/OD630, p75NTR I252A, n1-n3 ([2]; Div17E5 7.5 uM): 99% and 104% and 92%
- GFP/OD630, p75NTR I252A, Mean ([2]; Div17E5 7.5 uM): 98%
- GFP/OD630, p75NTR I252A, n1-n3 ([2]; Div17E5 15 uM): 98% and 107% and 87%
- GFP/OD630, p75NTR I252A, Mean ([2]; Div17E5 15 uM): 97%
- GFP/OD630, p75NTR I252A, n1-n3 ([2]; Div17E5 20 uM): 96% and 91% and 100%
- GFP/OD630, p75NTR I252A, Mean ([2]; Div17E5 20 uM): 96%
- GFP/OD630, p75NTR I252A, n1-n3 ([2]; Div17E5 50 uM): 99% and 106% and 92%
- GFP/OD630, p75NTR I252A, Mean ([2]; Div17E5 50 uM): 99%
- NGF-induced chemotaxis [3]: strongly inhibited
- background cell migration in the absence of NGF [3]: did not significantly affect background cell migration
- Fold change - invading cells, Mean ([3]; NGF): 1.91
- Fold change - invading cells, individual replicates ([3]; NGF): 1.80 and 1.91 and 2.02
- Fold change - invading cells, Mean ([3]; no NGF): 0.91
- Fold change - invading cells, individual replicates ([3]; no NGF): 0.87 and 0.90 and 0.95
- NGF activity in Boyden chamber assay of cell chemotaxis ([3]; 1 μM, NGF 50 ng/ml): inactive
- Fold change (invading cells), n1-n3 [3, 4]: 0.46 Fold and 0.84 Fold and 0.68 Fold
- Fold change (invading cells), Mean [3, 4]: 0.66 Fold
- Fold change (invading cells), n1-n3 [3, 5]: 0.94 Fold and 0.80 Fold
- Fold change (invading cells), Mean [3, 5]: 0.89 Fold
- Fold change (invading cells), n1-n3 ([3]; 10μM Div17E5, With NGF): 0.42 Fold and 0.37 Fold and 0.47 Fold
- Fold change (invading cells), Mean ([3]; 10μM Div17E5, With NGF): 0.42 Fold
- Fold change (invading cells), n1-n3 ([3]; 10μM Div17E5, without NGF): 0.87 Fold and 0.75 Fold and 0.76 Fold
- Fold change (invading cells), Mean ([3]; 10μM Div17E5, without NGF): 0.79 Fold
